The text below walks through data of patent US10548828B2, “Use of 3,6-anhydro-L-galactose for preventing dental caries” (Korea University Research and Business Foundation, priority 2015, dated 2020).

Some results are limits rather than exact numbers.

Assay [1] deals with S. mutans. The conditions noted are these: background statement; cited from earlier work.
Assay [2] concerns Streptococcus mutans. The assay is described as follows: Colony formation of Streptococcus mutans on solid minimal medium, single carbon source. Type of assay: cell-based, Streptococcus mutans ATCC 25175. Conditions: 10 g/L as single carbon source, 30 h. The protocol:
Strains used in the present experiment are Streptococcus mutans ATCC 25175, S. oralis, and S. sanguinis. Representatively, Streptococcus mutans ATCC 25175 was pre-cultured in a brain-heart infusion (BHI) medium for 12 hours, and was washed twice with a 2 mM potassium phosphate buffer, and then was subjected to main culture in a minimal medium prepared with reference to the previously reported document (Fujiwara et al (1978) Arch Oral Biol. 23, 601-602) at 37° C. and 180 rpm. The composition of the minimal medium includes, in 5 mL of a 50 mM Tris-HCl buffer (pH 7.4), 10 mg of L-glutamic acid, 1 mg of cysteine hydrochloride, 4.5 mg of L-leucine, 5 mg of ammonium chloride, 17.5 mg of potassium hydrogen phosphate, 7.5 mg of potassium dihydrogen phosphate, 21 mg of a carbonate, 6 mg of magnesium sulfate heptahydrate, 0.1 mg of manganese chloride tetrahydrate, 3 mg of sodium pyruvate, 5 μg of riboflavin, 2.5 μg of thiamine hydrochloride, 0.5 μg of biotin, 5 μg of nicotinic acid, 0.5 μg of p-aminobenzoic acid, 2.5 μg of calcium pantothenate, and 5 μg of pyridoxine hydrochloride. To verify an effect of inhibiting the growth of Streptococcus mutans under a single carbon source condition, Streptococcus mutans was cultured in a solid minimal medium and a liquid minimal medium that contained 10 g/L of each of 3,6-anhydro-L-galactose, glucose, and xylitol. […]

Assay [3] has as its system Streptococcus mutans. The assay is described as follows: Growth and acid production under mixed carbon source condition, 5 mL culture, absorbance and HPLC. Type of assay: cell-based, Streptococcus mutans ATCC 25175. The protocol: Strains used in the present experiment are Streptococcus mutans ATCC 25175, S. oralis, and S. sanguinis. Representatively, Streptococcus mutans ATCC 25175 was pre-cultured in a brain-heart infusion (BHI) medium for 12 hours, and was washed twice with a 2 mM potassium phosphate buffer, and then was subjected to main culture in a minimal medium prepared with reference to the previously reported document (Fujiwara et al (1978) Arch Oral Biol. 23, 601-602) at 37° C. and 180 rpm. The composition of the minimal medium includes, in 5 mL of a 50 mM Tris-HCl buffer (pH 7.4), 10 mg of L-glutamic acid, 1 mg of cysteine hydrochloride, 4.5 mg of L-leucine, 5 mg of ammonium chloride, 17.5 mg of potassium hydrogen phosphate, 7.5 mg of potassium dihydrogen phosphate, 21 mg of a carbonate, 6 mg of magnesium sulfate heptahydrate, 0.1 mg of manganese chloride tetrahydrate, 3 mg of sodium pyruvate, 5 μg of riboflavin, 2.5 μg of thiamine hydrochloride, 0.5 μg of biotin, 5 μg of nicotinic acid, 0.5 μg of p-aminobenzoic acid, 2.5 μg of calcium pantothenate, and 5 μg of pyridoxine hydrochloride. To verify an effect of 3,6-anhydro-L-galactose or xylitol on the growth of Streptococcus mutans and acid production, Streptococcus mutans bacteria were cultured, using the method of Example 5, in 5 mL of a liquid minimal medium containing 10 g/L of glucose and 0 g/L, 5 g/L or 10 g/L of 3,6-anhydro-L-galactose or 20 g/L or 40 g/L of xylitol for 35 h, and cell growth was measured using absorbance every 5 hours and concentrations of an extracellular substrate and acid production were measured by HPLC. A glucose only-added condition was set as a negative control, and a glucose- and xylitol-added condition was set as a positive control. A column used for analysis was Aminex HPX-87H, and 0.01 N of sulfuric acid as a mobile phase was flowed at a rate of 0.5 mL/min and 65° C.

Another assay relates to S. sanguinis. Nature of the assay: Growth inhibition under mixed carbon source condition (10 g/L glucose), 96-well plate. Format: cell-based. Conditions: 60 g/L added to 10 g/L glucose. As to the method: (§1) Strains used in the present experiment are Streptococcus mutans ATCC 25175, S. oralis, and S. sanguinis. Representatively, Streptococcus mutans ATCC 25175 was pre-cultured in a brain-heart infusion (BHI) medium for 12 hours, and was washed twice with a 2 mM potassium phosphate buffer, and then was subjected to main culture in a minimal medium prepared with reference to the previously reported document (Fujiwara et al (1978) Arch Oral Biol. 23, 601-602) at 37° C. and 180 rpm. […] Small amounts of Streptococcus mutans, S. oralis, and S. sanguinis were cultured, using the method of Example 5, in 200 μl of a liquid minimal medium containing 10 g/L of glucose and 3,6-anhydro-L-galactose or xylitol according to concentration in a 96-well plate, and growth inhibitory effects thereof were observed by measuring absorbance at a wavelength of 600 nm according to time. […]

Assay [4] has as its system Streptococcus mutans. Nature of the assay: Growth of Streptococcus mutans in liquid minimal medium, single carbon source (absorbance 600 nm). Type of assay: cell-based, Streptococcus mutans ATCC 25175. The conditions noted are these: 10 g/L single carbon source, 20 h after entering a stationary phase. The protocol: Strains used in the present experiment are Streptococcus mutans ATCC 25175, S. oralis, and S. sanguinis. Representatively, Streptococcus mutans ATCC 25175 was pre-cultured in a brain-heart infusion (BHI) medium for 12 hours, and was washed twice with a 2 mM potassium phosphate buffer, and then was subjected to main culture in a minimal medium prepared with reference to the previously reported document (Fujiwara et al (1978) Arch Oral Biol. 23, 601-602) at 37° C. and 180 rpm. The composition of the minimal medium includes, in 5 mL of a 50 mM Tris-HCl buffer (pH 7.4), 10 mg of L-glutamic acid, 1 mg of cysteine hydrochloride, 4.5 mg of L-leucine, 5 mg of ammonium chloride, 17.5 mg of potassium hydrogen phosphate, 7.5 mg of potassium dihydrogen phosphate, 21 mg of a carbonate, 6 mg of magnesium sulfate heptahydrate, 0.1 mg of manganese chloride tetrahydrate, 3 mg of sodium pyruvate, 5 μg of riboflavin, 2.5 μg of thiamine hydrochloride, 0.5 μg of biotin, 5 μg of nicotinic acid, 0.5 μg of p-aminobenzoic acid, 2.5 μg of calcium pantothenate, and 5 μg of pyridoxine hydrochloride. […] The bacteria were main-cultured using the method of Example 5 for 35 h, and a degree of the cell growth was measured by measuring the absorbance of a culture at a wavelength of 600 nm every 5 h.

In assay [5] the test system is S. mutans. The assay is described as follows: Inhibitory effects under sucrose, fructose or maltose conditions, 96-well plate. Conditions: for non-growth rate: 40 g/L added. Format: cell-based, Streptococcus mutans. The protocol: Strains used in the present experiment are Streptococcus mutans ATCC 25175, S. oralis, and S. sanguinis. Representatively, Streptococcus mutans ATCC 25175 was pre-cultured in a brain-heart infusion (BHI) medium for 12 hours, and was washed twice with a 2 mM potassium phosphate buffer, and then was subjected to main culture in a minimal medium prepared with reference to the previously reported document (Fujiwara et al (1978) Arch Oral Biol. 23, 601-602) at 37° C. and 180 rpm. The composition of the minimal medium includes, in 5 mL of a 50 mM Tris-HCl buffer (pH 7.4), 10 mg of L-glutamic acid, 1 mg of cysteine hydrochloride, 4.5 mg of L-leucine, 5 mg of ammonium chloride, 17.5 mg of potassium hydrogen phosphate, 7.5 mg of potassium dihydrogen phosphate, 21 mg of a carbonate, 6 mg of magnesium sulfate heptahydrate, 0.1 mg of manganese chloride tetrahydrate, 3 mg of sodium pyruvate, 5 μg of riboflavin, 2.5 μg of thiamine hydrochloride, 0.5 μg of biotin, 5 μg of nicotinic acid, 0.5 μg of p-aminobenzoic acid, 2.5 μg of calcium pantothenate, and 5 μg of pyridoxine hydrochloride. Under conditions of fermentable sugars other than glucose, for example, sucrose, fructose, and maltose, inhibitory effects of AHG and xylitol on S. mutans were investigated. An experiment was carried out in a 96-well plate containing 0 g/L to 10 g/L of AHG or 0 g/L to 40 g/L of xylitol in a specified minimal medium containing 10 g/L of each of sucrose, fructose, and maltose.

In assay [6] the test system is Streptococcus mutans. The assay is described as follows: Growth inhibition under mixed carbon source condition (10 g/L glucose), 96-well plate. Type of assay: cell-based, Streptococcus mutans ATCC 25175. The protocol: as §1

Regarding `OC[C@@H](O)[C@H](O)[C@@H](O)CO` [xylitol], the “concentration at which the growth of S. mutans can be inhibited” value in the assay on S. mutans [1] is recorded as at least 25 g/L. In the assay with Streptococcus mutans [2], the “formation of colonies compared to the glucose condition” value is “inhibited”. Also, in the assay on Streptococcus mutans [3] (20 g/L in 10 g/L glucose), the “concentration of produced acetic acid” value is reported as 0.55 g/L, the “concentration of produced lactic acid” value worked out at 3.67 g/L, the “final dry cell weight” value is 1.42 g/L and the glucose consumed was 5.28 g/L. Moreover, the non-growth rate with Streptococcus mutans [3] (20 g/L in 10 g/L glucose) stood at 0.087 h⁻¹. In the assay on Streptococcus mutans [3] (40 g/L in 10 g/L glucose), the “concentration of consumed glucose” value was determined as 5.42 g/L; the “concentration of produced acetic acid” value worked out at 0.55 g/L; the “concentration of produced lactic acid” value was determined as 3.67 g/L; the “inhibition of growth of Streptococcus mutans and acid production” value is on record as “did not completely inhibit”. Moreover, the lag phase entry in the assay on Streptococcus mutans [3] (40 g/L in 10 g/L glucose, compared with 20 g/L) was “longer”. Also, in the assay on Streptococcus mutans [3] (in 10 g/L glucose), the “use as a carbon source / fermentation by Streptococcus mutans” value is “non-fermentation properties”. Moreover, in the assay with Streptococcus mutans [3] (in 10 g/L glucose, 35 h culture), the “concentration of the added sugar during culture” value is on record as “constantly maintained”. In addition, in the assay on S. sanguinis, the “inhibitory effect on S. sanguinis” value was “strong inhibitory effect”. For the same compound, the “dry cell weight (DCW) of Streptococcus mutans” value with Streptococcus mutans [4] was 1.46 g/L. Moreover, the non-growth rate in the assay with S. mutans [5] (10 g/L fructose) was determined as 0.085 h⁻¹. The non-growth rate in the assay with S. mutans [5] (10 g/L maltose) is 0.045 h⁻¹. The “cell growth of S. mutans, concentration dependence” value with S. mutans [5] (10 g/L sucrose, 0-40 g/L added) is recorded as “decreased as the concentration of xylitol was increased”. This compound came in with a non-growth rate in the assay on S. mutans [5] (10 g/L sucrose) of 0.061 h⁻¹. Further, the “cell growth of S. mutans” value in the assay on S. mutans [5] (10 g/L sucrose, 40 g/L added (maximum concentration)) is “did not completely inhibit”. Also, the “growth of Streptococcus mutans, concentration dependence” value in the assay with Streptococcus mutans [6] (0-60 g/L added to 10 g/L glucose) was “inhibited as the treated concentration of xylitol was increased”. Further, in the assay on Streptococcus mutans [6] (40 g/L added to 10 g/L glucose), the “growth of Streptococcus mutans” value is “considerable cell growth was observed”.
